Reference: ChEMBL document CHEMBL5126607, “Discovery and In Vivo Evaluation of ACT-660602: A Potent and Selective Antagonist of the Chemokine Receptor CXCR3 for Autoimmune Diseases” (J Med Chem, 2022)
In brackets after ≈: the same amount, converted by molar mass.

Tests used:
[1] = in vivo; conditions: Balb/c, mouse, po, 10 mg/kg
[2] = biological target: T1, C-X-C chemokine receptor type 3 (Homo sapiens, UniProt P49682)
T1 sequence (P49682 whole entry): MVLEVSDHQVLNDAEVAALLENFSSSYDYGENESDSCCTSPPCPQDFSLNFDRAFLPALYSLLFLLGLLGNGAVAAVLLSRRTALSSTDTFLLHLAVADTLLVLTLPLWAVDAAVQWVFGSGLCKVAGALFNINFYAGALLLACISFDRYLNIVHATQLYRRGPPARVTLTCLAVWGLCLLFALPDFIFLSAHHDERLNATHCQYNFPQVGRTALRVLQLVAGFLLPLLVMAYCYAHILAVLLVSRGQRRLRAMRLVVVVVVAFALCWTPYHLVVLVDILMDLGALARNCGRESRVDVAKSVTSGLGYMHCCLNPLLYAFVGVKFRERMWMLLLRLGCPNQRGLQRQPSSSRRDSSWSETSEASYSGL
Description: Antagonist activity at recombinant human CXCR3 expressed in human CHO-K1 cells co-expressing Galpha15 incubated for 10 mins by Fluo-4AM dye based FLIPR assay

[3] = biological target: T1, C-X-C chemokine receptor type 3; remark: listed apart in the source
Description: Inhibition of CXCR3 receptor internalization in human venous whole blood incubated for 30 mins by flow cytometer analysis

[4] = in vitro; conditions: human, microsomes
[5] = biological target: T2, Voltage-gated inwardly rectifying potassium channel KCNH2 (Homo sapiens, UniProt Q12809); test: Inhibition of hERG expressed in CHO cells by Q patch-clamp method
[6] = in vivo; conditions: Balb/c, mouse, po, 10 mg/kg; remark: listed apart in the source
[7] = in vivo; conditions: Balb/c, mouse, po, 10 mg/kg; remark: listed apart in the source
[8] = biological target: T1, C-X-C chemokine receptor type 3; remark: listed apart in the source
Description: Antagonist activity at recombinant human CXCR3 in human U2SO cells assessed as reduction in CXCL10-induced beta-arrestin recruitment by TANGO assay

[9] = in vivo; conditions: Balb/c, mouse, po, 10 mg/kg; remark: listed apart in the source
[10] = Half life in BALB/c mouse at 1 mg/kg, iv and 10 mg/kg, po; conditions: in vivo
[11] = Fractional unbound plasma concentration in mouse at 1 mg/kg, iv and 10 mg/kg, po
[12] = Half life in Wistar rat at 0.2 mg/kg, iv and 2 mg/kg, po; conditions: in vivo
[13] = Fractional unbound plasma concentration in rat at 0.2 mg/kg, iv and 2 mg/kg, po
[14] = in vivo; conditions: Wistar, rat, po, 2 mg/kg
[15] = in vivo; conditions: Wistar, rat, po, 2 mg/kg; remark: listed apart in the source
[16] = in vivo; conditions: Wistar, rat, po, 2 mg/kg; remark: listed apart in the source
[17] = in vivo; conditions: Wistar, rat, po, 2 mg/kg; remark: listed apart in the source
[18] = in vivo; conditions: beagle, dog, po, 2 mg/kg
[19] = Lipophilicity, log D of the compound at pH 7.4; conditions: buffer
[20] = in vivo; conditions: beagle, dog, po, 2 mg/kg; remark: listed apart in the source
[21] = Half life in Beagle dog at 0.5 mg/kg, iv and 2 mg/kg, po; conditions: in vivo
[22] = Solubility of the compound in FeSSIF
[23] = Metabolic stability in Beagle dog hepatocyte assessed as intrinsic clearance measured per 10^6 cells in presence of NADPH regenerating system by LC-MS/MS analysis; conditions: hepatocytes
[24] = Solubility of the compound in FaSSIF
[25] = Metabolic stability in rat hepatocyte assessed as intrinsic clearance measured per 10^6 cells in presence of NADPH regenerating system by LC-MS/MS analysis; conditions: hepatocytes
[26] = Solubility of the compound in pH 7 buffer
[27] = Half life in Wistar rat at 0.5 mg/kg, iv and 2 mg/kg, po; conditions: in vivo
[28] = in vivo; conditions: beagle, dog, po, 2 mg/kg; remark: listed apart in the source
[29] = in vivo; conditions: beagle, dog, po, 2 mg/kg; remark: listed apart in the source
[30] = biological target: hERG (Homo sapiens, UniProt Q12809); test: Inhibition of hERG expressed in CHO cells 3 uM at by Q patch-clamp method relative to control; assay type: toxicity, cell-based; conditions: CHO cells that express hERG
[31] = Fractional unbound plasma concentration in Balb/c mouse at 10 mg/kg, po
[32] = biological target: T2, Voltage-gated inwardly rectifying potassium channel KCNH2; test: Inhibition of hERG by manual patch clamp method
[33] = Fractional unbound plasma concentration in Wistar rat at 0.5 mg/kg, iv and 2 mg/kg, po; conditions: in vivo
[34] = Fractional unbound plasma concentration in Beagle dog at 0.5 mg/kg, iv and 2 mg/kg, po

T2 sequence (Q12809 whole entry): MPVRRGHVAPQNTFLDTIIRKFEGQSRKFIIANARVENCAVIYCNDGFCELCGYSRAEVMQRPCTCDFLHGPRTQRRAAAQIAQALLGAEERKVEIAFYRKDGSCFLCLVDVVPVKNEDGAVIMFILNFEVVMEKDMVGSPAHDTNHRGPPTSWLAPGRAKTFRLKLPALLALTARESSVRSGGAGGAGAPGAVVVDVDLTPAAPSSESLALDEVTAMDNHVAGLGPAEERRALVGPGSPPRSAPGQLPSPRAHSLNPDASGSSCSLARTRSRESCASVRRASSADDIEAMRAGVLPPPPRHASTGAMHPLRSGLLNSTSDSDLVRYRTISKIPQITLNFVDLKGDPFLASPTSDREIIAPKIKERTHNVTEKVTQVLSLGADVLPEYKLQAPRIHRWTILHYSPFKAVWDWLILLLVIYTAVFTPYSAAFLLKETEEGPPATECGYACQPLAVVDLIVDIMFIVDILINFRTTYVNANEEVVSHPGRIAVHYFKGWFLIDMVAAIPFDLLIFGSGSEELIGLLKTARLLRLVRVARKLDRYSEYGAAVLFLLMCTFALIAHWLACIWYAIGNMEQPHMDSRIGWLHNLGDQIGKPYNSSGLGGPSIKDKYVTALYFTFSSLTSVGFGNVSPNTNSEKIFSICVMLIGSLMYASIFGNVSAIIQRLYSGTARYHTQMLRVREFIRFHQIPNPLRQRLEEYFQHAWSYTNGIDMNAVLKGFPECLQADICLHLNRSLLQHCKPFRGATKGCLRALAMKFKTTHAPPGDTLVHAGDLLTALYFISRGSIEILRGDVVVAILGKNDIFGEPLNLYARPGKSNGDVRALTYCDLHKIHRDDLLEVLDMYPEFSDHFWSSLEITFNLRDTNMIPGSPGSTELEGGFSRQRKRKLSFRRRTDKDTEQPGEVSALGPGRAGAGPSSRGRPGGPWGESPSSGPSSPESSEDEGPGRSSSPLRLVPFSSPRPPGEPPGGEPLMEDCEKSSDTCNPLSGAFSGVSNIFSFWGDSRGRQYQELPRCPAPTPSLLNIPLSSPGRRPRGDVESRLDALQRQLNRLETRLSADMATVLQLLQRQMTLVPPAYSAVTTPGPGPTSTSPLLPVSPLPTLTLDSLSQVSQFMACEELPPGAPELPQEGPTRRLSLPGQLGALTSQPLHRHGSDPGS
hERG, sequence (Q12809 whole entry): as above

Cmax [1] [ng/mL] | IC50 [2] [µM] | IC50 [3] [µM] | microsomal CLint at 1 µM [4] [µL/min/mg] | AUC [7] [ng·h/mL] | IC50 [8] [µM] | Tmax [9] [min] | fraction unbound [11] | bioavailability [14] [%] | Cmax [15] [ng/mL] | Tmax [16] [min] | AUC [17] [ng·h/mL] | AUC [18] [ng·h/mL] | logD [19] | Cmax [20] [ng/mL] | half-life [21] [min] | hepatocyte CLint [23] [µL/min/1e6 cells] | hepatocyte CLint [25] [µL/min/1e6 cells] | half-life [27] [min] | SMILES | IC50 [5] [µM] | further results
95.2 | 0.0059 | 0.554 | 12 | 60.7 | 0.83 | 60 | 0.122 |  |  |  |  |  |  |  |  |  |  |  | C[C@@H]1CN(c2scnc2-c2nc3ccccc3[nH]2)CCN1C(=O)Cn1cnc2cccnc21 | 2.2 | bioavailability [6]: 4%; half-life [10]: 6 min
 | 0.0016 | 0.07 | 89 |  | 0.031 |  | 0.01 | 7 | 91.3 | 36 | 191 |  |  |  |  |  |  |  | C[C@@H]1CN(c2sc(C(F)(F)F)nc2-c2nc3ccccc3[nH]2)CCN1C(=O)Cn1cnc2cccnc21 | 1.75 | half-life [12]: 48 min; fraction unbound [13]: 0.017
 |  |  | < 10 |  |  |  |  | 80 | 1520 | 30 | 14000 | 20000 | 2.9 | 1380 | 870 | < 2 | < 2 | 426 | Cc1nc(C)n(CC(=O)N2CCN(c3sc(C(F)(F)F)nc3-c3cnc(C(F)(F)F)nc3)C[C@H]2C)n1 |  | solubility [22]: 530 µg/mL (≈ 992 µM); solubility [24]: 450 µg/mL (≈ 842 µM); solubility [26]: 387 µg/mL (≈ 724 µM); bioavailability [28]: 80%; Tmax [29]: 60 min
11600 | 0.007 | 0.364 | < 10 | 63600 | 0.173 | 30 |  | 52 | 574 | 30 | 2850 | 861 | 2.8 | 415 | 60 | 5.1 | < 2 | 372 | CCOc1ncc(-c2nc(C(F)(F)F)sc2N2CCN(C(=O)Cn3nc(C)nc3C)[C@H](C)C2)cn1 | > 20 | inhibition at 3 µM [30]: 4%; fraction unbound [31]: 0.023; IC50 [32]: 44 µM; fraction unbound [33]: 0.101; fraction unbound [34]: 0.328; bioavailability [28]: 52%; Tmax [29]: 30 min
